Data as given in PubChem BioAssay (NCI).
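Five compound concentrations were applied to cells in 96-well plates for 48 hours; endpoints were derived by simple linear interpolation of the resulting dose-response curve. Definition used: TGI = concentration required for complete inhibition of growth.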

Assays:
Experiment in all cases: NCI anticancer screen, dose series, 48 h
HCT-15 colon = tested on: HCT-15 colon
SNB-19 CNS = tested on: SNB-19 CNS
SK-MEL-5 melanoma = tested on: SK-MEL-5 melanoma
NCI-H226 lung = tested on: NCI-H226 lung
OVCAR-3 ovarian = tested on: OVCAR-3 ovarian
SK-MEL-28 melanoma = tested on: SK-MEL-28 melanoma
MDA-N = tested on: MDA-N
NCI-H23 lung = tested on: NCI-H23 lung
RPMI-8226 leukemia = tested on: RPMI-8226 leukemia
NCI-H460 lung = tested on: NCI-H460 lung
TK-10 renal = tested on: TK-10 renal
OVCAR-4 ovarian = tested on: OVCAR-4 ovarian
DU-145 prostate = tested on: DU-145 prostate
SW-620 colon = tested on: SW-620 colon
SNB-75 CNS = tested on: SNB-75 CNS
UACC-257 melanoma = tested on: UACC-257 melanoma
MCF7 breast = tested on: MCF7 breast
MDA-MB-435 = tested on: MDA-MB-435
RXF 393 renal = tested on: RXF 393 renal
PC-3 prostate = tested on: PC-3 prostate
HCC-2998 colon = tested on: HCC-2998 colon
OVCAR-5 ovarian = tested on: OVCAR-5 ovarian
CCRF-CEM leukemia = tested on: CCRF-CEM leukemia
MALME-3M melanoma = tested on: MALME-3M melanoma
EKVX NSCLC = tested on: EKVX NSCLC
KM12 colon = tested on: KM12 colon
HS 578T breast = tested on: HS 578T breast
A498 renal = tested on: A498 renal
UO-31 renal = tested on: UO-31 renal
HCT-116 colon = tested on: HCT-116 colon
U251 CNS = tested on: U251 CNS
IGROV1 ovarian = tested on: IGROV1 ovarian
SK-OV-3 ovarian = tested on: SK-OV-3 ovarian
K-562 leukemia = tested on: K-562 leukemia
OVCAR-8 ovarian = tested on: OVCAR-8 ovarian
BT-549 breast = tested on: BT-549 breast
CAKI-1 renal = tested on: CAKI-1 renal
A549 NSCLC = tested on: A549 NSCLC
HT29 colon = tested on: HT29 colon
NCI/ADR-RES ovarian = tested on: NCI/ADR-RES ovarian
MOLT-4 leukemia = tested on: MOLT-4 leukemia
COLO 205 colon = tested on: COLO 205 colon
NCI-H522 lung = tested on: NCI-H522 lung
UACC-62 melanoma = tested on: UACC-62 melanoma
MDA-MB-231 breast = tested on: MDA-MB-231 breast
ACHN renal = tested on: ACHN renal
SF-295 CNS = tested on: SF-295 CNS
SN12C renal = tested on: SN12C renal
SK-MEL-2 melanoma = tested on: SK-MEL-2 melanoma
HOP-62 NSCLC = tested on: HOP-62 NSCLC
SF-268 CNS = tested on: SF-268 CNS
T-47D breast = tested on: T-47D breast
786-0 renal = tested on: 786-0 renal
M14 melanoma = tested on: M14 melanoma
LOX IMVI melanoma = tested on: LOX IMVI melanoma
SR leukemia = tested on: SR leukemia
SF-539 CNS = tested on: SF-539 CNS
HL-60(TB) leukemia = tested on: HL-60(TB) leukemia
HOP-92 NSCLC = tested on: HOP-92 NSCLC

Measured: TGI

COc1cccc2c1CCc1sc(CN3CCN(C)CC3)nc1-2
80.1 µM: SK-MEL-5 melanoma
65.7 µM: UACC-62 melanoma
> 100 µM: HCT-15 colon | SNB-19 CNS | NCI-H226 lung | OVCAR-3 ovarian | SK-MEL-28 melanoma | MDA-N | NCI-H23 lung | RPMI-8226 leukemia | NCI-H460 lung | TK-10 renal | OVCAR-4 ovarian | DU-145 prostate | SW-620 colon | SNB-75 CNS | UACC-257 melanoma | MCF7 breast | MDA-MB-435 | RXF 393 renal | PC-3 prostate | HCC-2998 colon | OVCAR-5 ovarian | MALME-3M melanoma | EKVX NSCLC | KM12 colon | HS 578T breast | A498 renal | UO-31 renal | HCT-116 colon | U251 CNS | IGROV1 ovarian | SK-OV-3 ovarian | K-562 leukemia | OVCAR-8 ovarian | BT-549 breast | CAKI-1 renal | A549 NSCLC | NCI/ADR-RES ovarian | COLO 205 colon | NCI-H522 lung | MDA-MB-231 breast | ACHN renal | SF-295 CNS | SN12C renal | SK-MEL-2 melanoma | HOP-62 NSCLC | SF-268 CNS | T-47D breast | 786-0 renal | M14 melanoma
54.1 µM: HT29 colon
53.5 µM: CCRF-CEM leukemia
63.9 µM: MOLT-4 leukemia

S=C1NC(c2ccccc2)NC(c2ccccc2)S1 (centres undefined)
> 100 µM: HCT-15 colon | SNB-19 CNS | SK-MEL-5 melanoma | NCI-H226 lung | OVCAR-3 ovarian | SK-MEL-28 melanoma | MDA-N | NCI-H23 lung | RPMI-8226 leukemia | TK-10 renal | OVCAR-4 ovarian | LOX IMVI melanoma | DU-145 prostate | SW-620 colon | SNB-75 CNS | UACC-257 melanoma | MCF7 breast | MDA-MB-435 | RXF 393 renal | PC-3 prostate | OVCAR-5 ovarian | SR leukemia | MALME-3M melanoma | SF-539 CNS | EKVX NSCLC | KM12 colon | HS 578T breast | HL-60(TB) leukemia | A498 renal | UO-31 renal | HCT-116 colon | U251 CNS | IGROV1 ovarian | SK-OV-3 ovarian | K-562 leukemia | OVCAR-8 ovarian | BT-549 breast | CAKI-1 renal | A549 NSCLC | HT29 colon | NCI/ADR-RES ovarian | MOLT-4 leukemia | COLO 205 colon | NCI-H522 lung | UACC-62 melanoma | MDA-MB-231 breast | ACHN renal | SF-295 CNS | SN12C renal | SK-MEL-2 melanoma | HOP-62 NSCLC | HOP-92 NSCLC | SF-268 CNS | T-47D breast | 786-0 renal | M14 melanoma
63.3 µM: NCI-H460 lung
8.38 µM: CCRF-CEM leukemia

COc1ccc(CC2OC3(CCCCC3)CC3CCCCN32)cc1 (centres undefined)
> 100 µM: HCT-15 colon | SNB-19 CNS | SK-MEL-5 melanoma | NCI-H226 lung | OVCAR-3 ovarian | SK-MEL-28 melanoma | MDA-N | NCI-H23 lung | RPMI-8226 leukemia | NCI-H460 lung | TK-10 renal | OVCAR-4 ovarian | LOX IMVI melanoma | DU-145 prostate | SW-620 colon | SNB-75 CNS | UACC-257 melanoma | MCF7 breast | MDA-MB-435 | RXF 393 renal | PC-3 prostate | HCC-2998 colon | OVCAR-5 ovarian | CCRF-CEM leukemia | SR leukemia | MALME-3M melanoma | EKVX NSCLC | KM12 colon | HS 578T breast | HL-60(TB) leukemia | UO-31 renal | HCT-116 colon | U251 CNS | IGROV1 ovarian | SK-OV-3 ovarian | K-562 leukemia | OVCAR-8 ovarian | BT-549 breast | CAKI-1 renal | A549 NSCLC | HT29 colon | NCI/ADR-RES ovarian | MOLT-4 leukemia | COLO 205 colon | NCI-H522 lung | UACC-62 melanoma | MDA-MB-231 breast | ACHN renal | SF-295 CNS | SN12C renal | SK-MEL-2 melanoma | HOP-62 NSCLC | HOP-92 NSCLC | SF-268 CNS | T-47D breast | 786-0 renal | M14 melanoma
